In patent US20120201749A1, “NP-1 Antagonists and Their Therapeutic Use” (priority 2009, published 2012):

Target: NP-1 (Homo sapiens, UniProt O14786)
Test: Biotinylated-VEGF-A165 (bt-VEGF-A165) binding to NP-1
Conditions: for inhibition at 3 µM: 3 μM compound, read-out: Screen (% inhibition at 3 μM); for inhibition at 30 µM: 30 μM compound, read-out: Screen (% inhibition at 30 μM)
Protocol: Human prostate carcinoma DU145 cells were cultured in growth medium (RPMI 1640 containing 10% FBS and L-glutamine). DU145 cells were seeded at the density of 2×10^4 cells per well (96-well plates) in 0.1 ml growth medium and transfected with adenovirus vectors containing the full-length open-reading frame of human NP-1. The Ad.NP-1-transfected cells grew for 2 days prior to a binding assay.
Confluent Ad.NP-1-transfected cells in 96-well plates were washed twice with phosphate-buffered saline (PBS). The various concentrations of compounds diluted in binding medium (Dulbecco's modified Eagle's medium, 25 mM HEPES pH 7.3 containing 0.1% BSA) were added, followed by addition of 2 nM of bt-VEGF-A165. After 2 h of incubation at room temperature, the medium was aspirated and washed three times with PBS. The bound bt-VEGF-A165 to NP-1 was detected by streptavidin-horseradish peroxidase conjugates and the enzyme substrate, and measured using a Tecan Genios plate reader at A450 nm with a reference wavelength at A595 nm. Non-specific binding was determined in the presence of 100-fold excess unlabelled VEGF-A165.
The 96-well plates were pre-coated with NP1 protein at 3 μg/ml overnight at 4° C. On the following day, the plates were treated with blocking buffer (PBS containing 1% BSA) and washed three times with wash buffer (PBS containing 0.1% Tween-20). The various concentrations of compounds diluted in PBS containing 1% DMSO were added, followed by addition of 0.25 nM of bt-VEGF-A165. After 2 h of incubation at room temperature, the plates were washed three times with wash buffer. The bound bt-VEGF-A165 to NP-1 was detected by streptavidin-horseradish peroxidase conjugates and the enzyme substrate, and measured using a Tecan Genios plate reader at A450 nm with a reference wavelength at A595 nm. Nonspecific binding was determined in the absence of NP-1 coated wells of the plates.

NP-1, sequence (O14786 22-923): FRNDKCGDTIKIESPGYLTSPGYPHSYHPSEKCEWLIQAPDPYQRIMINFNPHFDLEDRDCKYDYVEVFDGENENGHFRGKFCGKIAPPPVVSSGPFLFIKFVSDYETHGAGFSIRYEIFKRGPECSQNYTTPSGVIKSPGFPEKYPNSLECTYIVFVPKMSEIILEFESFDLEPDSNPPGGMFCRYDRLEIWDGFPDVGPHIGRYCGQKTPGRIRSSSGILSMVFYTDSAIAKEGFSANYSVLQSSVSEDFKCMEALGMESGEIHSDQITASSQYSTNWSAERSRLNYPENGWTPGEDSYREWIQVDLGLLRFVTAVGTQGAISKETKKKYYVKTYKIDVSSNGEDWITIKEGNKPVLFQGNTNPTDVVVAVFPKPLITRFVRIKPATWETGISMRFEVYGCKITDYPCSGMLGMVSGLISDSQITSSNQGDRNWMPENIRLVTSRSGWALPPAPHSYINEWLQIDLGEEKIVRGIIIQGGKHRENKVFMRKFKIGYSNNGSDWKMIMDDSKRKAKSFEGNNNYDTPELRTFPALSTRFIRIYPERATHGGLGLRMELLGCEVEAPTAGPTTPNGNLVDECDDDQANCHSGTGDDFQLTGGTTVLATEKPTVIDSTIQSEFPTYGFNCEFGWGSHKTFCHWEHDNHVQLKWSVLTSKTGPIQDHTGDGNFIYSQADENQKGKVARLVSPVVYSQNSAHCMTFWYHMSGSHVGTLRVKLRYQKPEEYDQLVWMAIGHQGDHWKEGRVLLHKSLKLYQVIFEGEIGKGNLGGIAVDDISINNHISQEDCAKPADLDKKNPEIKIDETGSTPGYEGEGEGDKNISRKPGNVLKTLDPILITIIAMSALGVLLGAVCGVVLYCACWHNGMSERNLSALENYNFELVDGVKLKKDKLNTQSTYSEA

inhibition at 3 µM | inhibition at 30 µM | IC50 | SMILES
77% | – | – | N=C(N)NCCC[C@H](NC(=O)c1sccc1NS(=O)(=O)c1cc(-c2cccc(CNCc3cc[nH]n3)c2)cc2c1OCC2)C(=O)O [Compound 52, (S)-5-Guanidino-2-({3-[5-(3-{[(1H-pyrazol-3-ylmethyl)-amino]-methyl}-phenyl)-2,3-dihydro-benzofuran-7-sulfonylamino]-thiophene-2-carbonyl}-amino)-pentanoic acid]
58% | 97% | – | Cn1cncc1CNCc1ccccc1-c1cc2c(c(S(=O)(=O)Nc3ccsc3C(=O)N[C@@H](CCCNC(=N)N)C(=O)O)c1)OCC2 [Compound 23, (S)-5-Guanidino-2-({3-[5-(2-{[(3-methyl-3H-imidazol-4-ylmethyl)-amino]-methyl}-phenyl)-2,3-dihydro-benzofuran-7-sulfonylamino]-thiophene-2-carbonyl}-amino)-pentanoic acid]
86% | 99% | 54 nM | Cc1cc(CNCc2cccc(-c3cc4c(c(S(=O)(=O)Nc5ccsc5C(=O)N[C@@H](CCCNC(=N)N)C(=O)O)c3)OCC4)c2)no1 [Compound 48, (S)-5-Guanidino-2-({3-[5-(3-{[(5-methyl-isoxazol-3-ylmethyl)-amino]-methyl}-phenyl)-2,3-dihydro-benzofuran-7-sulfonylamino]-thiophene-2-carbonyl}-amino)-pentanoic acid]
56% | – | – | N=C(N)NCCC[C@H](NC(=O)c1sccc1NS(=O)(=O)c1cc(-c2cccc(CNCc3ccc(N)nc3)c2)cc2c1OCC2)C(=O)O [Compound 40, (S)-2-({3-[5-(3-{[(6-Amino-pyridin-3-ylmethyl)-amino]-methyl}-phenyl)-2,3-dihydro-benzofuran-7sulfonylamino]-thiophene-2-carbonyl}-amino)-5-guanidino-pentanoic acid]
100% | – | 7 nM | N=C(N)NCCC[C@H](NC(=O)c1sccc1NS(=O)(=O)c1cc(-c2ccccc2CN2CCC(C(=O)O)CC2)cc2c1OCC2)C(=O)O [Compound 1, 1-(2-{7-[2-((S)-1-Carboxy-4-guanidino-butylcarbonyl)-thiophen-3-ylsulfamoyl]-2,3-dihydro-benzofuran-5-yl}-benzyl)-piperidine-4-carboxylic acid]
– | 100% | 591 nM | N=C(N)NCCC[C@H](NC(=O)c1sccc1NS(=O)(=O)c1cc(-c2cccc(CN3CCN(c4cccnc4)CC3)c2)cc2c1OCC2)C(=O)O [Compound 13, (S)-5-Guanidino-2-[(3-{5-[3-(4-pyridin-3-yl-piperazin-1-ylmethyl)-phenyl]-2,3-dihydro-benzofuran-7-sulfonylamino}-thiophene-2-carbonyl)-amino]-pentanoic acid]
54% | – | – | N=C(N)NCCC[C@H](NC(=O)c1sccc1NS(=O)(=O)c1cc(-c2ccccc2CNCc2cc[nH]n2)cc2c1OCC2)C(=O)O [Compound 53, (S)-5-Guanidino-2-({3-[5-(2-{[(1H-pyrazol-3-ylmethyl)-amino]-methyl}-phenyl)-2,3-dihydro-benzofuran-7-sulfonylamino]-thiophene-2-carbonyl}-amino)-pentanoic acid]
71% | 93% | – | N=C(N)NCCC[C@H](NC(=O)c1sccc1NS(=O)(=O)c1cccc(NCc2csc(N3CCN(c4ncccn4)CC3)n2)c1)C(=O)O [Compound 66, (S)-5-guanidino-2-{[3-(3-{[2-(4-pyrimidin-2-yl-piperazin-1-yl)-thiazol-4-ylmethyl]-amino}-benzenesulfonylamino)-thiophene-2-carbonyl]-amino}-pentanoic acid]
78% | – | – | N=C(N)NCCC[C@H](NC(=O)c1sccc1NS(=O)(=O)c1cc(-c2cccc(CNCCc3cn[nH]c3)c2)cc2c1OCC2)C(=O)O [Compound 42, (S)-5-Guanidino-2-({3-[5-(3-{[2-(1H-pyrazol-4-yl)-ethylamino]-methyl}-phenyl)-2,3-dihydro-benzofuran-7-sulfonylamino]-thiophene-2-carbonyl}-amino)-pentanoic acid]
81% | – | – | Cc1ccnc(NCCNCc2cccc(-c3cc4c(c(S(=O)(=O)Nc5ccsc5C(=O)N[C@@H](CCCNC(=N)N)C(=O)O)c3)OCC4)c2)c1 [Compound 45, (S)-5-Guanidino-2-({3-[5-(3-{[2-(4-methyl-pyridin-2-ylamino)-ethylamino]-methyl}-phenyl)-2,3-dihydro-benzofuran-7-sulfonylamino]-thiophene-2-carbonyl}-amino)-pentanoic acid]
– | 97% | 3000 nM | N=C(N)NCCC[C@H](NC(=O)c1sccc1NS(=O)(=O)c1cc(-c2ccccc2CNCc2cccnc2)cc2c1OCC2)C(=O)O [Compound 9, (S)-5-Guanidino-2-({3-[5-(2-{[(pyridin-3-ylmethyl)-amino]-methyl}-phenyl)-2,3-dihydro-benzofuran-7-sulfonylamino]-thiophene-2-carbonyl}-amino)-pentanoic acid]
95% | – | 3 nM | COC(=O)CC1CCN(Cc2ccccc2-c2cc3c(c(S(=O)(=O)Nc4ccsc4C(=O)N[C@@H](CCCNC(=N)N)C(=O)O)c2)OCC3)CC1 [Compound 6, (S)-5-Guanidino-2-[(3-{5-[2-(4-methoxycarbonylmethyl-piperidin-1-ylmethyl)-phenyl]-2,3-dihydro-benzofuran-7-sulfonylamino}-thiophene-2-carbonyl)-amino]-pentanoic acid]
80% | – | 72 nM | N=C(N)NCCC[C@H](NC(=O)c1sccc1NS(=O)(=O)c1cc(-c2cccc(CN3CCC(CC(=O)O)CC3)c2)cc2c1OCC2)C(=O)O [Compound 4, (S)-2-[(3-{5-[3-(4-Carboxymethyl-piperidin-1-ylmethyl)-phenyl]-2,3-dihydro-benzofuran-7-sulfonylamino}-thiophene-2-carbonyl)-amino]-5-guanidino-pentanoic acid]
82% | – | – | Cc1ccc(NCCCNCc2ccccc2-c2cc3c(c(S(=O)(=O)Nc4ccsc4C(=O)N[C@@H](CCCNC(=N)N)C(=O)O)c2)OCC3)nc1 [Compound 50, (S)-5-Guanidino-2-({3-[5-(2-{[3-(5-methyl-pyridin-2-ylamino)-propylamino]-methyl}-phenyl)-2,3-dihydro-benzofuran-7-sulfonylamino]-thiophene-2-carbonyl}-amino)-pentanoic acid]
– | 96% | 1200 nM | N=C(N)NCCC[C@H](NC(=O)c1sccc1NS(=O)(=O)c1cc(-c2cccc(CNCc3cccnc3)c2)cc2c1OCC2)C(=O)O [Compound 12, (S)-5-Guanidino-2-({3-[5-(3-{[(pyridin-3-ylmethyl)-amino]-methyl}-phenyl)-2,3-dihydro-benzofuran-7-sulfonyl-amino]-thiophene-2-carbonyl}-amino)-pentanoic acid]
– | 98% | 1500 nM | N=C(N)NCCC[C@H](NC(=O)c1sccc1NS(=O)(=O)c1cc(-c2cccc(CN3CCN(Cc4cccnc4)CC3)c2)cc2c1OCC2)C(=O)O [Compound 11, (S)-5-Guanidino-2-[(3-{5-[3-(4-pyridin-3-ylmethyl-piperazin-1-ylmethyl)-phenyl]-2,3-dihydro-benzofuran-7-sulfonylamino}-thiophene-2-carbonyl)-amino]-pentanoic acid]
78% | – | – | Cc1ccc(NCCCNCc2cccc(-c3cc4c(c(S(=O)(=O)Nc5ccsc5C(=O)N[C@@H](CCCNC(=N)N)C(=O)O)c3)OCC4)c2)nc1 [Compound 44, (S)-5-Guanidino-2-({3-[5-(3-{[3-(5-methyl-pyridin-2-ylamino)-propylamino]-methyl}-phenyl)-2,3-dihydro-benzofuran-7-sulfonylamino]-thiophene-2-carbonyl}-amino)-pentanoic acid]
37% | 89% | – | N=C(N)NCCC[C@H](NC(=O)c1sccc1NS(=O)(=O)c1cccc(NCc2cnn(CCN3CCN(c4ccccn4)CC3)c2)c1)C(=O)O [Compound 68]
40% | 90% | – | N=C(N)NCCC[C@H](NC(=O)c1sccc1NS(=O)(=O)c1cccc(NCc2csc(N3CCN(Cc4ccccn4)CC3)n2)c1)C(=O)O [Compound 65, (S)-5-guanidino-2-{[3-(3-{[2-(4-pyridin-2-ylmethyl-piperazin-1-yl)-thiazol-4-ylmethyl]-amino}-benzenesulfonylamino)-thiophene-2-carbonyl]-amino}-pentanoic acid]
69% | – | – | CCN(Cc1ccncc1)c1nc(CNc2cccc(S(=O)(=O)Nc3ccsc3C(=O)N[C@@H](CCCNC(=N)N)C(=O)O)c2)cs1 [Compound 73, (S)-2-{[3-(3-{[2-(Ethyl-pyridin-4-ylmethyl-amino)-thiazol-4-ylmethyl]-amino}-benzenesulfonylamino)-thiophene-2-carbonyl]-amino}-5-guanidino-pentanoic acid]
